In US5389627A, “Cephem compounds” (priority 1993, dated 1995):
≈ marks a conversion by molar mass, not a printed value. Read-outs that look alike come from different tables or passages of the source. Values belong to the compound of their own block, whether it stands above or below them.

Legend:
[1] = system: S.marcescens C1052; test: In vitro antibacterial activity, minimum inhibitory concentration; type: cell-based; settings: Serratia marcescens
From the text: (§1) As reference compounds, Cefotaxime (CTX), Ceftazidime (CAZ) and Cefpirome (CPR) were employed.

[2] = system: E.coli C4002; test: as above; type: cell-based; settings: Escherichia coli
From the text: as §1

[3] = system: P.rettgeri ATCC9919; test: as above; type: cell-based; settings: Providencia rettgeri
From the text: as §1

[4] = system: P.aeruginosa ATCC10145; test: as above; type: cell-based; settings: Pseudomonas aeruginosa
From the text: as §1

[5] = system: K.oxytoca C4022; test: as above; type: cell-based; settings: Klebsiella oxytoca
From the text: as §1

[6] = system: P.aeruginosa C4070; test: as above; type: cell-based; settings: Pseudomonas aeruginosa
From the text: as §1

[7] = system: E.cloacae C4009; test: as above; type: cell-based; settings: Enterobacter cloacae
From the text: as §1

[8] = system: S.aureus C4036; test: as above; type: cell-based; settings: Staphylococcus aureus
From the text: as §1

[9] = system: S.marcescens ATCC27117; test: as above; type: cell-based; settings: Serratia marcescens
From the text: as §1

[10] = system: S.aureus ATCC29213; test: as above; type: cell-based; settings: Staphylococcus aureus
From the text: as §1

[11] = system: K.pneumoniae C1040; test: as above; type: cell-based; settings: Klebsiella pneumoniae
From the text: as §1

[12] = system: E.cloacae C4008; test: as above; type: cell-based; settings: Enterobacter cloacae
From the text: as §1

[13] = system: S.pyogenes ATCC 8668; test: as above; type: cell-based; settings: Streptococcus pyogenes
From the text: as §1

[14] = system: P.aeruginosa C2027; test: as above; type: cell-based; settings: Pseudomonas aeruginosa
From the text: as §1

[15] = system: E.coli ATCC25922; test: as above; type: cell-based; settings: Escherichia coli
From the text: as §1

[16] = system: S.pyogenes C4003; test: as above; type: cell-based; settings: Streptococcus pyogenes
From the text: as §1

[17] = system: S.aureus Smith; test: as above; type: cell-based; settings: Staphylococcus aureus, read-out: Minimum Inhibitory Concentration (MIC)
From the text: as §1

[18] = system: MRSA C2208; test: as above; type: cell-based; settings: Staphylococcus aureus, read-out: Minimum Inhibitory Concentration (MIC)
From the text: as §1

[19] = system: P.aeruginosa ATCC27853; test: as above; type: cell-based; settings: Pseudomonas aeruginosa
From the text: as §1

[20] = system: E.coli ATCC10536; test: as above; type: cell-based; settings: Escherichia coli
From the text: as §1

[21] = system: S.Faecalis ATCC29212; test: as above; type: cell-based; settings: Enterococcus faecalis
From the text: as §1

[22] = system: S.typhimurium C4045; test: as above; type: cell-based; settings: Salmonella enterica, read-out: Minimum Inhibitory Concentration (MIC)
From the text: as §1

[23] = system: P.mirabilis ATCC25933; test: as above; type: cell-based; settings: Proteus mirabilis
From the text: as §1

[24] = system: K.pneumoniae ATCC10031; test: as above; type: cell-based; settings: Klebsiella pneumoniae
From the text: as §1

[25] = system: S.epidermidis ATCC12228; test: as above; type: cell-based; settings: Staphylococcus epidermidis
From the text: as §1

[26] = Pharmacokinetics (plasma half-life); type: in vivo; settings: SD Rat, mean value, read-out: Half-Life (T1/2)
Description: In order to investigate the pharmacokinetics properties of the compounds according to the present invention, the plasma half-life was determined in accordance with the method described in Antimicrobial Agents and Chemotherapy, 26(2), p.

Compound: CC(C)(O/N=C(\C(=O)N[C@@H]1C(=O)N2C(C(=O)[O-])=C(C[n+]3ccccc3)CS[C@H]12)c1csc(N)n1)C(=O)O [CAZ, Ceftazidime, reference compound]
- MIC ([1]; C1052, read-out: Minimum Inhibitory Concentration (MIC)): 0.2 µg/mL (≈ 0.366 µM)
- MIC ([2]; C4002, read-out: Minimum Inhibitory Concentration (MIC)): 0.1 µg/mL (≈ 0.183 µM)
- MIC ([3]; ATCC9919, read-out: Minimum Inhibitory Concentration (MIC)): 0.025 µg/mL (≈ 0.0457 µM)
- MIC ([4]; ATCC10145, read-out: Minimum Inhibitory Concentration (MIC)): 1.56 µg/mL (≈ 2.85 µM)
- MIC ([5]; C4022, read-out: Minimum Inhibitory Concentration (MIC)): 0.78 µg/mL (≈ 1.43 µM)
- MIC ([6]; C4070, read-out: Minimum Inhibitory Concentration (MIC)): 1.56 µg/mL (≈ 2.85 µM)
- MIC ([7]; C4009, read-out: Minimum Inhibitory Concentration (MIC)): 0.05 µg/mL (≈ 0.0915 µM)
- MIC ([8]; C4036, read-out: Minimum Inhibitory Concentration (MIC)): 6.25 µg/mL (≈ 11.4 µM)
- MIC ([9]; ATCC27117, read-out: Minimum Inhibitory Concentration (MIC)): 0.1 µg/mL (≈ 0.183 µM)
- MIC ([10]; ATCC29213, read-out: Minimum Inhibitory Concentration (MIC)): 6.25 µg/mL (≈ 11.4 µM)
- MIC ([11]; C1040, read-out: Minimum Inhibitory Concentration (MIC)): 0.05 µg/mL (≈ 0.0915 µM)
- MIC ([12]; C4008, read-out: Minimum Inhibitory Concentration (MIC)): 0.05 µg/mL (≈ 0.0915 µM)
- MIC ([13]; ATCC8668, read-out: Minimum Inhibitory Concentration (MIC)): 0.1 µg/mL (≈ 0.183 µM)
- MIC ([14]; C2027, read-out: Minimum Inhibitory Concentration (MIC)): 0.78 µg/mL (≈ 1.43 µM)
- MIC ([15]; ATCC25922, read-out: Minimum Inhibitory Concentration (MIC)): 0.2 µg/mL (≈ 0.366 µM)
- MIC ([16]; C4003, read-out: Minimum Inhibitory Concentration (MIC)): 0.2 µg/mL (≈ 0.366 µM)
- MIC [17]: 6.25 µg/mL (≈ 11.4 µM)
- MIC ([18]; MRSA): > 100 µg/mL
- MIC ([19]; ATCC27853, read-out: Minimum Inhibitory Concentration (MIC)): 3.13 µg/mL (≈ 5.73 µM)
- MIC ([20]; ATCC10536, read-out: Minimum Inhibitory Concentration (MIC)): 0.05 µg/mL (≈ 0.0915 µM)
- MIC [21]: > 100 µg/mL
- MIC ([22]; TYPHIMURIUM): 0.2 µg/mL (≈ 0.366 µM)
- MIC ([23]; ATCC25933, read-out: Minimum Inhibitory Concentration (MIC)): 0.05 µg/mL (≈ 0.0915 µM)
- MIC ([24]; ATCC10031, read-out: Minimum Inhibitory Concentration (MIC)): 0.05 µg/mL (≈ 0.0915 µM)
- MIC ([25]; ATCC12228, read-out: Minimum Inhibitory Concentration (MIC)): 3.13 µg/mL (≈ 5.73 µM)
- half-life ([26]; in vivo): 12.3 min

- MIC ([1]; S.marcescens C1052, read-out: Minimum Inhibitory Concentration (MIC)): 0.05 µg/mL (≈ 0.0972 µM)
- MIC ([2]; E.coli C4002, read-out: Minimum Inhibitory Concentration (MIC)): 0.05 µg/mL (≈ 0.0972 µM)
- MIC ([3]; P.rettgeri ATCC9919, read-out: Minimum Inhibitory Concentration (MIC)): 0.013 µg/mL (≈ 0.0253 µM)
- MIC ([4]; P.aeruginosa ATCC10145, read-out: Minimum Inhibitory Concentration (MIC)): 6.25 µg/mL (≈ 12.1 µM)
- MIC ([5]; K.oxytoca C4022, read-out: Minimum Inhibitory Concentration (MIC)): 1.56 µg/mL (≈ 3.03 µM)
- MIC ([6]; P.aeruginosa C4070, read-out: Minimum Inhibitory Concentration (MIC)): 6.25 µg/mL (≈ 12.1 µM)
- MIC ([7]; E.cloacae C4009, read-out: Minimum Inhibitory Concentration (MIC)): 0.013 µg/mL (≈ 0.0253 µM)
- MIC ([8]; S.aureus C4036, read-out: Minimum Inhibitory Concentration (MIC)): 0.39 µg/mL (≈ 0.758 µM)
- MIC ([9]; S.marcescens ATCC27117, read-out: Minimum Inhibitory Concentration (MIC)): 0.05 µg/mL (≈ 0.0972 µM)
- MIC ([10]; S.aureus ATCC29213, read-out: Minimum Inhibitory Concentration (MIC)): 0.78 µg/mL (≈ 1.52 µM)
- MIC ([11]; K.pneumoniae C1040, read-out: Minimum Inhibitory Concentration (MIC)): 0.025 µg/mL (≈ 0.0486 µM)
- MIC ([12]; E.cloacae C4008, read-out: Minimum Inhibitory Concentration (MIC)): 0.013 µg/mL (≈ 0.0253 µM)
- MIC ([13]; ATCC8668, S.pyogenes ATCC 8668, read-out: Minimum Inhibitory Concentration (MIC)): 0.007 µg/mL (≈ 0.0136 µM)
- MIC ([14]; P.aeruginosa C2027, read-out: Minimum Inhibitory Concentration (MIC)): 0.39 µg/mL (≈ 0.758 µM)
- MIC ([15]; E.coli ATCC25922, read-out: Minimum Inhibitory Concentration (MIC)): 0.05 µg/mL (≈ 0.0972 µM)
- MIC ([16]; S.pyogenes C4003, read-out: Minimum Inhibitory Concentration (MIC)): 0.007 µg/mL (≈ 0.0136 µM)
- MIC ([17]; S.aureus Smith): 0.39 µg/mL (≈ 0.758 µM)
- MIC ([18]; MRSA C2208): > 100 µg/mL
- MIC ([19]; P.aeruginosa ATCC27853, read-out: Minimum Inhibitory Concentration (MIC)): 3.13 µg/mL (≈ 6.08 µM)
- MIC ([20]; E.coli ATCC10536, read-out: Minimum Inhibitory Concentration (MIC)): 0.013 µg/mL (≈ 0.0253 µM)
- MIC [21]: 50 µg/mL (≈ 97.2 µM)
- MIC ([22]; S.typhimurium C4045): 0.025 µg/mL (≈ 0.0486 µM)
- MIC ([23]; P.mirabilis ATCC25933, read-out: Minimum Inhibitory Concentration (MIC)): 0.05 µg/mL (≈ 0.0972 µM)
- MIC ([24]; K.pneumoniae ATCC10031, read-out: Minimum Inhibitory Concentration (MIC)): 0.013 µg/mL (≈ 0.0253 µM)
- MIC ([25]; S.epidermidis ATCC12228, read-out: Minimum Inhibitory Concentration (MIC)): 0.2 µg/mL (≈ 0.389 µM)
- half-life [26]: 19.5 min
Compound: CO/N=C(\C(=O)N[C@@H]1C(=O)N2C(C(=O)[O-])=C(C[n+]3cccc4c3CCC4)CS[C@H]12)c1csc(N)n1 [CPR, Cefpirome, reference compound]
